Measurements reported in US8846730B2, “Compounds as cannabinoid receptor ligands” (priority 2008, dated 2014).
Read-outs that look alike come from different tables or passages of the source.

Assays:
[1] = biological target: rat CB2 receptors (HEK cells) (Rattus norvegicus (Rat), UniProt Q9QZN9); assay: rat CB2 cyclase functional assay (HitHunter cAMP); type: cell-based; conditions: HEK cells, forskolin 18 μM; read-out: rat CB2 cyclase (EC50)
Method: (§1) The cyclase functional assays were performed using the HitHunter™ cAMP assay kit from DiscoveRx (Fremont, Calif.) according to vendor's protocol. Briefly, HEK cells expressing CB2 or CB1 receptors (rat or human) were detached using cell dissociation buffer (Invitrogen, Carlsbad, Calif.), dispersed and placed in suspension at 10,000 cells per well in 96 well plates prior to the assay. Cell suspensions were incubated at 37° C. for 20 min with variable concentrations of test ligands and or 10 μM CP 55,940-positive control in the presence of a fixed concentration of forskolin (18 μM for rat CB2 and 37 μM for rat CB1) in Dulbescco's phosphate-buffered saline (Invitrogen, Carlsbad, Calif.) supplemented with bovine serum albumin (0.01% final concentration). The reactions were terminated by the addition of lysis buffer and the luminescence was detected following the procedure according to the manufacturer's instructions. EC50 values were calculated using sigmoidal dose-response curve fitting from Prism (GraphPad).

human CB2 receptors = human CB2 receptors (Homo sapiens (Human), UniProt P34972); assay: human CB2 radioligand binding assay ([3H]CP 55,940 competition); conditions: HEK293 membranes, 0.5 nM [3H]CP 55,940; read-out: human CB2 (Ki)
Method: (§2) The CB1 and CB2 radioligand binding assays described herein are utilized to ascertain the affinity of compounds of the present application for binding to CB2 relative to CB1 receptors.
HEK293 cells stably expressing human CB2 receptors were grown until a confluent monolayer was formed. Briefly, the cells were harvested and homogenized in TE buffer (50 mM Tris-HCl, 1 mM MgCl2, and 1 mM EDTA) using a polytron for 2×10 second bursts in the presence of protease inhibitors, followed by centrifugation at 45,000×g for 20 minutes. The final membrane pellet was re-homogenized in storage buffer (50 mM Tris-HCl, 1 mM MgCl2, and 1 mM EDTA and 10% sucrose) and frozen at −78° C. until used. Saturation binding reactions were initiated by the addition of membrane preparation (protein concentration of 5 μg/well for human CB2) into wells of a deep well plate containing [^3H]CP 55,940 (120 Ci/mmol, a nonselective CB agonist commercially available from Tocris) in assay buffer (50 mM Tris, 2.5 mM EDTA, 5 mM MgCl2, and 0.5 mg/mL fatty acid free BSA, pH 7.4). After 90 min incubation at 30° C., binding reaction was terminated by the addition of 300 μL/well of cold assay buffer followed by rapid vacuum filtration through a UniFilter-96 GF/C filter plates (pre-soaked in 1 mg/mL BSA for 2 hours). The bound activity was counted in a TopCount using Microscint-20. Saturation experiments were conducted with twelve concentrations of [^3H]CP 55,940 ranging from 0.01 to 8 nM. Competition experiments were conducted with 0.5 nM [^3H]CP 55,940 and five concentrations (0.01 nM to 10 μM) of displacing ligands. The addition of 10 μM unlabeled CP 55,940 (Tocris, Ellisville, Mo.) was used to assess nonspecific binding.

[2] = biological target: rat CB1 receptors (HEK cells) (Rattus norvegicus (Rat), UniProt P20272); assay: rat CB1 cyclase functional assay (HitHunter cAMP); type: cell-based
Method: as §1

rat CB2 receptors = rat CB2 receptors (Rattus norvegicus (Rat), UniProt Q9QZN9); assay: rat CB2 radioligand binding assay ([3H]CP 55,940 competition); conditions: HEK293 membranes, 0.5 nM [3H]CP 55,940
Method: as §2
HEK293 cells stably expressing rat CB2 receptors were grown until a confluent monolayer was formed. Briefly, the cells were harvested and homogenized in TE buffer (50 mM Tris-HCl, 1 mM MgCl2, and 1 mM EDTA) using a polytron for 2×10 second bursts in the presence of protease inhibitors, followed by centrifugation at 45,000×g for 20 minutes. The final membrane pellet was re-homogenized in storage buffer (50 mM Tris-HCl, 1 mM MgCl2, and 1 mM EDTA and 10% sucrose) and frozen at −78° C. until used. Saturation binding reactions were initiated by the addition of membrane preparation (protein concentration of 20 μg/well for rat CB2) into wells of a deep well plate containing [^3H]CP 55,940 (120 Ci/mmol, a nonselective CB agonist commercially available from Tocris) in assay buffer (50 mM Tris, 2.5 mM EDTA, 5 mM MgCl2, and 0.5 mg/mL fatty acid free BSA, pH 7.4). After 45 min incubation at 30° C., binding reaction was terminated by the addition of 300 μl/well of cold assay buffer followed by rapid vacuum filtration through a UniFilter-96 GF/C filter plates (pre-soaked in 1 mg/mL BSA for 2 hours). The bound activity was counted in a TopCount using Microscint-20. Saturation experiments were conducted with twelve concentrations of [^3H]CP 55,940 ranging from 0.01 to 8 nM. Competition experiments were conducted with 0.5 nM [^3H]CP 55,940 and five concentrations of displacing ligands selected from the range of 0.01 nM to 10 μM. The addition of 10 μM unlabeled CP 55,940 (Tocris, Ellisville, Mo.) was used to assess nonspecific binding.

[3] = HEK cells, forskolin 37 μM, read-out: rCB1 cyclase (EC50)

Chain of human CB2 receptors (P34972 whole entry): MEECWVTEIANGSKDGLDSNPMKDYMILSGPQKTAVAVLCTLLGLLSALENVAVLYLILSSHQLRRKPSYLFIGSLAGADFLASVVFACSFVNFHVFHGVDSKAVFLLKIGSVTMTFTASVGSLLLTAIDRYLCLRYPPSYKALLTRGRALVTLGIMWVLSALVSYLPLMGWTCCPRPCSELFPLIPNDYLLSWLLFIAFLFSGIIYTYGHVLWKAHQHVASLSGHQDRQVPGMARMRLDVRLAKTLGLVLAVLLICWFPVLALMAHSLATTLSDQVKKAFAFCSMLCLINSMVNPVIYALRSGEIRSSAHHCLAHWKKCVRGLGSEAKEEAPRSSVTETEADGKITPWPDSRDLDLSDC
Chain of rat CB1 receptors (HEK cells) (P20272 whole entry): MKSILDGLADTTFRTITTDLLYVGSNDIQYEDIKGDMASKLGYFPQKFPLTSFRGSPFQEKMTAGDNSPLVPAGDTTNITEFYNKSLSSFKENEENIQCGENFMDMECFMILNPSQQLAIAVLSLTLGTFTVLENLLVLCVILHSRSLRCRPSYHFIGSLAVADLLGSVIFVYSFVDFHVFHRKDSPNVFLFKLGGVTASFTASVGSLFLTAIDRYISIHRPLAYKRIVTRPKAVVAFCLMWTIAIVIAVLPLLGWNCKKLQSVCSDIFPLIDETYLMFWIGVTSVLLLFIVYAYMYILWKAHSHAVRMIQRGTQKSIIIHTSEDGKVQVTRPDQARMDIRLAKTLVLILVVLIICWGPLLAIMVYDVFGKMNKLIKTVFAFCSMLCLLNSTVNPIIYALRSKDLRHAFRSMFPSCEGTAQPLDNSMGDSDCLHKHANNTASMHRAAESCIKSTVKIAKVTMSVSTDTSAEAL

Row | Compound | EC50 [1] [nM] | Ki (human CB2 receptors) [nM] | EC50 [2] [nM] | Ki (rat CB2 receptors) [nM] | EC50 [2, 3] [nM]
1 | CC(C)(C)c1cn(C[C@H]2CCCO2)/c(=N/C(=O)c2cc(C(F)(F)F)ccc2OC[C@H]2CCN2)s1 [Example 1, 2-[(2R)-azetidin-2-ylmethoxy]-N-[(2Z)-5-tert-butyl-3-[(2R)-tetrahydrofuran-2-ylmethyl]-1,3-thiazol-2(3H)-ylidene]-5-(trifluoromethyl)benzamide] | 2.26 | 115 | 9330 | 15 | –
2 | CC(C)(C)c1cn(C[C@H]2CCCO2)/c(=N/C(=O)c2cc(C(F)(F)F)ccc2OC[C@@H]2CCN2)s1 [Example 2, 2-[(2S)-azetidin-2-ylmethoxy]-N-[(2Z)-5-tert-butyl-3-[(2R)-tetrahydrofuran-2-ylmethyl]-1,3-thiazol-2(3H)-ylidene]-5-(trifluoromethyl)benzamide] | 0.64 | 15 | 3240 | 3 | –
3 | CN1CC[C@H]1COc1ccc(C(F)(F)F)cc1C(=O)/N=c1\sc(C(C)(C)C)cn1C[C@H]1CCCO1 [Example 3, N-[(2Z)-5-tert-butyl-3-[(2R)-tetrahydrofuran-2-ylmethyl]-1,3-thiazol-2(3H)-ylidene]-2-{[(2S)-1-methylazetidin-2-yl]methoxy}-5-(trifluoromethyl)benzamide] | 0.09 | 7.4 | 1020 | 4.5 | –
4 | CC(C)(C)c1cn(C[C@H]2CCCO2)/c(=N/C(=O)c2cc(C(F)(F)F)ccc2OC[C@@H]2CCCCN2)s1 [Example 4] | 0.4 | 0.7 | – | 0.6 | 395
5 | CN1CCCC[C@H]1COc1ccc(C(F)(F)F)cc1C(=O)/N=c1\sc(C(C)(C)C)cn1C[C@H]1CCCO1 [Example 5] | 0.15 | 0.7 | – | 1.4 | 612
6 | CC(C)(C)c1cn(C[C@H]2CCCO2)/c(=N/C(=O)c2cc(C(F)(F)F)ccc2OC[C@H]2CCCCN2)s1 [Example 6, N-[(2Z)-5-tert-butyl-3-[(2R)-tetrahydrofuran-2-ylmethyl]-1,3-thiazol-2(3H)-ylidene]-2-[(2R)-piperidin-2-ylmethoxy]-5-(trifluoromethyl)benzamide] | 0.4 | 30 | 4500 | 14 | –
7 | CN1CCCC[C@@H]1COc1ccc(C(F)(F)F)cc1C(=O)/N=c1\sc(C(C)(C)C)cn1C[C@H]1CCCO1 [Example 7, N-[(2Z)-5-tert-butyl-3-[(2R)-tetrahydrofuran-2-ylmethyl]-1,3-thiazol-2(3H)-ylidene]-2-{[(2R)-1-methylpiperidin-2-yl]methoxy}-5-(trifluoromethyl)benzamide] | 0.38 | 33 | 4700 | 19 | –
8 | CN1CC[C@@H]1COc1ccc(C(F)(F)F)cc1C(=O)/N=c1\sc(C(C)(C)C)cn1C[C@H]1CCCO1 [Example 8, N-[(2Z)-5-tert-butyl-3-[(2R)-tetrahydrofuran-2-ylmethyl]-1,3-thiazol-2(3H)-ylidene]-2-{[(2R)-1-methylazetidin-2-yl]methoxy}-5-(trifluoromethyl)benzamide] | 0.35 | 47 | 3680 | 17 | –
9 | CN1CC(COc2ccc(C(F)(F)F)cc2C(=O)/N=c2\sc(C(C)(C)C)cn2C[C@H]2CCCO2)C1 [Example 12, N-[(2Z)-5-tert-butyl-3-[(2R)-tetrahydrofuran-2-ylmethyl]-1,3-thiazol-2(3H)-ylidene]-2-[(1-methylazetidin-3-yl)methoxy]-5-(trifluoromethyl)benzamide] | 2.07 | 208 | 10800 | 28 | –
10 | CN1CCC(COc2ccc(C(F)(F)F)cc2C(=O)/N=c2\sc(C(C)(C)C)cn2C[C@H]2CCCO2)CC1 [Example 15, N-[(2Z)-5-tert-butyl-3-[(2R)-tetrahydrofuran-2-ylmethyl]-1,3-thiazol-2(3H)-ylidene]-2-[(1-methylpiperidin-4-yl)methoxy]-5-(trifluoromethyl)benzamide] | 6.26 | 1000 | 13000 | 83 | –
11 | Cn1ccnc1COc1ccc(C(F)(F)F)cc1C(=O)/N=c1\sc(C(C)(C)C)cn1C[C@H]1CCCO1 [Example 17, N-[(2Z)-5-tert-butyl-3-[(2R)-tetrahydrofuran-2-ylmethyl]-1,3-thiazol-2(3H)-ylidene]-2-[(1-methyl-1H-imidazol-2-yl)methoxy]-5-(trifluoromethyl)benzamide] | 2.75 | 53 | > 27000 | 15 | –
12 | CC(C)(C)c1cn(C[C@H]2CCCO2)/c(=N/C(=O)c2cc(C(F)(F)F)ccc2OCc2ccccn2)s1 [Example 18, N-[(2Z)-5-tert-butyl-3-[(2R)-tetrahydrofuran-2-ylmethyl]-1,3-thiazol-2(3H)-ylidene]-2-(pyridin-2-ylmethoxy)-5-(trifluoromethyl)benzamide] | 1.02 | 20 | > 27000 | 6 | –
13 | CC(C)(C)/C(COc1ccc(C(F)(F)F)cc1C(=O)/N=c1\sc(C(C)(C)C)cn1C[C@H]1CCCO1)=N\O [Example 71, N-[(2Z)-5-tert-butyl-3-[(2R)-tetrahydrofuran-2-ylmethyl]-1,3-thiazol-2(3H)-ylidene]-2-{[(2E)-2-(hydroxyimino)-3,3-dimethylbutyl]oxy}-5-(trifluoromethyl)benzamide] | – | 5.4 | > 27000 | 4.1 | –
14 | CC(C)(C)C(=O)COc1ccc(C(F)(F)F)cc1C(=O)/N=c1\sc(C(C)(C)C)cn1C[C@H]1CCCO1 [Example 72, N-[(2Z)-5-tert-butyl-3-[(2R)-tetrahydrofuran-2-ylmethyl]-1,3-thiazol-2(3H)-ylidene]-2-(3,3-dimethyl-2-oxobutoxy)-5-(trifluoromethyl)benzamide] | – | 0.9 | > 27000 | 0.3 | –
15 | CC(COc1ccc(C(F)(F)F)cc1C(=O)/N=c1\sc(C(C)(C)C)cn1C[C@H]1CCCO1)=NO [Example 73, N-[(2Z)-5-tert-butyl-3-[(2R)-tetrahydrofuran-2-ylmethyl]-1,3-thiazol-2(3H)-ylidene]-2-{[2-(hydroxyimino)propyl]oxy}-5-(trifluoromethyl)benzamide] | – | 1.8 | – | 0.5 | 2320
16 | CC(=NOc1ccc(C(F)(F)F)cc1C(=O)/N=c1\sc(C(C)(C)C)cn1C[C@H]1CCCO1)C(F)(F)F [Example 80, N-[(2Z)-5-tert-butyl-3-[(2R)-tetrahydrofuran-2-ylmethyl]-1,3-thiazol-2(3H)-ylidene]-5-(trifluoromethyl)-2-({[2,2,2-trifluoro-1-methylethylidene]amino}oxy)benzamide] | – | 4.4 | > 27000 | 4.8 | –
